Ends that are not written are not given here.
Experiments:
Settings in all cases: 24 h
[1] = test system: SKBR3; assay type: cell-based, human
Experimental: (§1) Viability Assay: Equivalent numbers of cells from each cell line was seeded in 96-well plate and incubated at 37 °C for 24 hours before treatment. The cells were treated with different concentration of peptides and incubated for 24 hours at 37 °C. 20 µl of 5mg/ml of MTT reagent was added to each well and incubated for 4 hours at 37 °C. The supernatant was then removed, followed by addition of 150 µl of MTT solvent, with shaking 15 min at room temperature. Absorbance at 590 nm was then measured through the BioTek Synergy H1 microplate reader.

[2] = test system: MCF7; assay type: cell-based, human
Experimental: as §1

[3] = test system: human peripheral blood mononuclear cells (PBMCs); assay: MTT viability assay, PBMCs; assay type: cell-based
Excerpt: Cell Lines: MDA-MB-468, MDA-MB-231, ZR-75-1, MCF7, and T47D were obtained from the Physical Sciences-Oncology Network (PS-ON) Bioresource Core Facility (PBCF) at American Type Culture Collection (ATCC, Manassas, VA, USA). SKBR3 cell line was a kind gift from Dr. Hyungjin Kim at Stony Brook University. ZR-75-1, MCF7, and T47D were maintained in complete RPMI 1640 media. MDA-MB-468, MDA-MB-231, and SKBR3 were maintained in complete DMEM media. Both complete RPMI and DMEM were supplemented with 10% FBS, 1% penicillin-streptomycin, 1 µg/mL Amphotericin B, 1% of l-glutamine, 2 mM sodium pyruvate, and 10 mM HEPES buffer at pH 8. Human Peripheral Blood Mononuclear Cells (PBMCs) were isolated from fresh human blood by Ficoll-Paque PLUS and cultured in complete RPMI 1640 media.
as §1

What does the source list for GFQDVEAQAATCNHTVMA [B18]?
IC50 [1]: 11.2 ± 3.4 µM; IC50 [2]: 59.8 ± 5.3 µM; cytotoxic effect on quiescent PBMCs [3]: no cytotoxic effect was observed
